Where two headings read alike, the source gives them in different places.
Assays:
[1] = molecular target: T1, Cyclin Dependent Kinase 1/Cyclin A2 (CDK1-cycA2) (Homo sapiens, UniProt P06493); assay: CDK1-cycA2 TR-FRET (Lance) enzyme assay; type: biochemical; details: Table O, enzymatic assay
T1 construct: purchased ProQinase 0134-0054-1
Outline: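 Human CDK1/cyclin A2 pre-incubated 30 min with compound dose responses in 50 mM HEPES pH 7.5, 10 mM MgCl2, 2 mM TCEP, 0.05% BGG, 0.01% Brij 35. Reaction quenched with EDTA (15 mM final); TR-FRET readout using Eu-anti-phospho-4E-BP1, acceptor/donor ratio. Inhibition constants from Morrison equation.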

[2] = molecular target: T2, Cyclin Dependent Kinase 2/Cyclin E1 (CDK2-cycE1) (Homo sapiens, UniProt P24941); assay: CDK2-cycE1 TR-FRET (LANCE) enzyme assay; type: biochemical; details: for FS CDK1/CDK2 / FS CDK4/CDK2: fold selectivity; for increased fold-selectivity CDK1/CDK2 over Comparator C: (+) sign after FS CDK1/CDK2; for increased fold-selectivity CDK4/CDK2 over Comparator C: (+) sign after FS CDK4/CDK2;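 for improvement in potency against CDK2 (Ki) over Comparator C: fold lower CDK2 Ki than comparator c (Ki 0.032 µM)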
T2 construct: purchased ProQinase 0050-0055-1
Outline: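 Compound dose responses pre-incubated 30 min with CDK2-cycE1 in 50 mM HEPES pH 7.5, 10 mM MgCl2, 2 mM TCEP, 0.05% BGG, 0.01% Brij 35. Reaction quenched with EDTA (15 mM final), phospho-MBP detected by Eu-anti-phospho-MBP TR-FRET (acceptor/donor ratio). Inhibition constants from Morrison equation.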

[3] = tested on: OVISE (JCRB1043, CCNE1-amplified); assay: OVISE EdU incorporation cell proliferation assay (CDK2-dependent); type: cell-based; details: for IC50: cellular assay, read-out: CDK2 OVISE IC50; for FS SKOV-3/OVISE / FS p-H3/OVISE: fold selectivity; for FS p-H3/OVISE: cellular p-H3 IC50 over OVISE IC50; for increased fold-selectivity SKOV-3/OVISE over Comparator C: (+) sign after FS SKOV-3/OVISE; for improvement in CDK2 OVISE cell potency over Comparator C: in brackets after OVISE IC50, Comparator C 5.5 μM
Outline: (§1)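 Cells in RPMI/10% FBS dosed with compound (0.5% DMSO final) for 16 h at 37 °C, 5% CO2, then EdU 0.5 μM final for 8 h before fixation and imaging. IC50 from 4-parameter logistic fit of EdU-positive cell fraction versus dose.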

SKOV-3 (ATCC HTB-77) = assay: SKOV-3 EdU incorporation cell proliferation assay (CDK4/6-dependent); type: cell-based; details: Homo sapiens, cellular assay, read-out: CDK4/6 SKOV-3 IC50
Outline: as §1

HCT116 cells = assay: p-H3 HCT-116 mitotic release cell proliferation assay (cellular CDK1); type: cell-based; details: Homo sapiens, HCT-116; Table O, cellular assay; read-out: CDK1 p-H3 IC50
Experimental: Inhibition of cellular CDK1 determined by release of cells from nocodazole-induced mitotic arrest, as measured by decrease in phospho-Histone H3. Histone H3 (Ser 10) level is detected in cell lysates by producing a Fluorescence Resonance Energy Transfer (FRET) signal between two antibodies, Phospho-Histone H3 Cryptate (acting as the donor) and Phospho-Histone H3 d2 (acting as the acceptor).
Plates are allowed to rest overnight at 37° C./5% CO2. The following morning, nocodazole is diluted in complete medium, and 5 μL is added to each test well and positive control well for a final concentration of 500 nM. Plates are then incubated for 16 hours at 37° C./5% CO2. […] 10 μL of diluted compound is then transferred to the cell plate (final DMSO concentration 0.1%). Cell plates are then incubated for 4 hours in 37° C. 5% CO2. A cell lysis buffer is prepared on ice using reagents from the Phospho-Histone H3 (Ser10) cellular kit (Cisbio-64HH3PEG). Supernatant is discarded from the cell plate and 80 μL of the supplemented cell lysis buffer (1:99 dilution of the Blocking Reagent and the 1× cell lysis buffer provided in the kit) is added to each of the experimental wells. The cell lysis reaction is allowed to proceed at room temperature while shaking vigorously for 30 minutes. The 384-well HTRF (Homogeneous Time Resolved Fluorescence) plate is prepared by adding 2 μL of each diluted antibody (Phospho-Histone H3 Cryptate antibody and Phospho-Histone H3 d2 antibody diluted 19:1 in a detection buffer) and 12 μL of the supplemented cell lysis buffer to each well in the HTRF plate. 4 μL of the cell lysate is added to the prepared HTRF plate which is then sealed and the reaction is allowed to proceed for a minimum of 2 hours at room temperature.

[4] = molecular target: T3, Cyclin Dependent Kinase 4/Cyclin D3 (CDK4-cycD3) (Homo sapiens, UniProt P11802); assay: CDK4-cycD3 TR-FRET (LANCE) enzyme assay; type: biochemical; details: Table O, enzymatic assay
T3 construct: purchased Carna Biosciences 04-105
Outline: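 Compound dose responses pre-incubated 30 min with enzyme mix in 50 mM HEPES pH 7.5, 10 mM MgCl2, 2 mM TCEP, 0.05% BGG, 0.01% Brij 35. Reaction quenched with EDTA (15 mM final); Eu-anti-phospho-4E-BP1 TR-FRET detection, acceptor/donor ratio. Ki derived by Morrison equation.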

[5] = Table O, enzymatic assay, read-out: CDK2 Ki
[6] = Table O, enzymatic CDK1 Ki over CDK2 Ki
[7] = Table O, enzymatic CDK4 Ki over CDK2 Ki
[8] = Table Q, enzymatic assay, read-out: CDK2 Ki
[9] = read-out: CDK2 activity / potency (enzymatic assay)
[10] = Table O, cellular SKOV-3 IC50 over OVISE IC50

T3 sequence (P11802 whole entry): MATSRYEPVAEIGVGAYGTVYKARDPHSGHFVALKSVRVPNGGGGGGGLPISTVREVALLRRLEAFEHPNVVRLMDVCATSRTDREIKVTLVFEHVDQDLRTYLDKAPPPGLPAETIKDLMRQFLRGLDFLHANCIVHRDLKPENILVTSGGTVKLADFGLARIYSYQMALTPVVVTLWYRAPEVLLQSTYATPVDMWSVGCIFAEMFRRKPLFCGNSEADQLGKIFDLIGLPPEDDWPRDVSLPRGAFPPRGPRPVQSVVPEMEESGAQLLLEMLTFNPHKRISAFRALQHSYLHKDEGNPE
T3 sequence (P30281 whole entry partner): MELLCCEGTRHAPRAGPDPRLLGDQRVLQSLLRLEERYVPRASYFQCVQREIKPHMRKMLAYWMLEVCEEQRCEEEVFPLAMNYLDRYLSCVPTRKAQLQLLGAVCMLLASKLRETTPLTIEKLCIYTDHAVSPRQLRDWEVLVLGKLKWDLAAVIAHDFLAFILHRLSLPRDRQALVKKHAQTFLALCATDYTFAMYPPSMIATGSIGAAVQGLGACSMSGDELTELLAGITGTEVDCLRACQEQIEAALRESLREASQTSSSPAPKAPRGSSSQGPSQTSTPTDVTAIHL
T1 sequence (P06493 whole entry): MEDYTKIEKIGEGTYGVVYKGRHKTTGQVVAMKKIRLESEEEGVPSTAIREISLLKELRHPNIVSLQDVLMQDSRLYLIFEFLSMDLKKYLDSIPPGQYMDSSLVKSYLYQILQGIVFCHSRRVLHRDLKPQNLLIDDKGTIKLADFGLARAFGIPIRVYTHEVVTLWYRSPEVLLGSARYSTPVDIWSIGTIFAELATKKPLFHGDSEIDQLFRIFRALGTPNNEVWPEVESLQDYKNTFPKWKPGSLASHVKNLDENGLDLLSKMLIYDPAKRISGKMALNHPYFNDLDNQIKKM
T1 sequence (P20248 whole entry partner): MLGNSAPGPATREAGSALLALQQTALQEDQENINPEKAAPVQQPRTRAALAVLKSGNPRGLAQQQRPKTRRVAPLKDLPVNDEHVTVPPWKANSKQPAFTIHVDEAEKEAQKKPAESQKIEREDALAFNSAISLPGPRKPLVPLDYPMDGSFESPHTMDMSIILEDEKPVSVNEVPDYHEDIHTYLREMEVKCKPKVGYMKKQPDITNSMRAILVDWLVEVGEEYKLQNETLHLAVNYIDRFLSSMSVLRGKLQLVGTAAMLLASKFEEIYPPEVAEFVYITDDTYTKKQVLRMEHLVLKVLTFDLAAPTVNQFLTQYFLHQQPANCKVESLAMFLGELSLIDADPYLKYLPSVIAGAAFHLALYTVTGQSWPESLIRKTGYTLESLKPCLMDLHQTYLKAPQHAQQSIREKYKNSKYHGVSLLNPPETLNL

Structure (SMILES)	Ki [1]	improvement in potency against CDK2 (Ki) over Comparator C [2]	Ki [2, 5]	FS CDK1/CDK2 [2, 6]	FS CDK4/CDK2 [2, 7]	increased fold-selectivity CDK1/CDK2 over Comparator C ([2]; Table Q)	increased fold-selectivity CDK4/CDK2 over Comparator C ([2]; Table Q)	Ki [2, 8]	FS CDK1/CDK2 ([2]; Table Q, enzymatic)	FS CDK4/CDK2 ([2]; Table Q, enzymatic)	IC50 ([3]; Table O)	FS SKOV-3/OVISE [3, 10]	FS p-H3/OVISE ([3]; Table O)	increased fold-selectivity SKOV-3/OVISE over Comparator C ([3]; Table Q)	FS SKOV-3/OVISE ([3]; Table Q, cellular)	improvement in CDK2 OVISE cell potency over Comparator C ([3]; Table Q)	IC50 (SKOV-3 (ATCC HTB-77); SK-OV-3, Table O)	IC50 (SKOV-3 (ATCC HTB-77); SK-OV-3, Table Q)	IC50 (HCT116 cells)	Ki [4]	further results
CC(C)NC(=O)O[C@@H]1CC[C@H](c2cc(Nc3cnccn3)n[nH]2)C1 [Example 2E, (1R,3S)-3-(3-(pyrazin-2-ylamino)-1H-pyrazol-5-yl)cyclopentyl isopropylcarbamate]	8.4 nM	246 fold	0.13 nM	65	57	(+) (The (+) sign in Table Q signifies desirable increased fold-selectivity of the exemplary compounds over Comparator C)	(+) (The (+) sign in Table Q signifies desirable increased fold-selectivity of the exemplary compounds over Comparator C)	0.13 nM	65	57	16 nM	8.1	0.88	(+) (The (+) sign in Table Q signifies desirable increased fold-selectivity of the exemplary compounds over Comparator C)	8.1	344 fold	130 nM	130 nM	14 nM	7.4 nM	Ki [2, 9]: ≤ 1 nM
CC(C)NC(=O)O[C@@H]1CC[C@H](c2cc(Nc3ccc(-n4ccnc4)cn3)n[nH]2)C1 [Example 2EE, (1R,3S)-3-(3-((5-(1H-imidazol-1-yl)pyridin-2-yl)amino)-1H-pyrazol-5-yl)cyclopentyl isopropylcarbamate]	290 nM	10 fold	3.2 nM	91	59	(+) (The (+) sign in Table Q signifies desirable increased fold-selectivity of the exemplary compounds over Comparator C)	(+) (The (+) sign in Table Q signifies desirable increased fold-selectivity of the exemplary compounds over Comparator C)	3.2 nM	91	59	340 nM	29	2.6	(+) (The (+) sign in Table Q signifies desirable increased fold-selectivity of the exemplary compounds over Comparator C)	29	16 fold	9700 nM	9700 nM	900 nM	190 nM	
COc1nccc(Nc2cc([C@H]3CC[C@@H](OC(=O)NC(C)C)C3)[nH]n2)n1 [Example 2F, (1R,3S)-3-(3-((2-methoxypyrimidin-4-yl)amino)-1H-pyrazol-5-yl)cyclopenty1 isopropylcarbamate]	11 nM	78 fold	0.41 nM	21	270		(+) (The (+) sign in Table Q signifies desirable increased fold-selectivity of the exemplary compounds over Comparator C)	0.41 nM	21	270	65 nM	58	1.3	(+) (The (+) sign in Table Q signifies desirable increased fold-selectivity of the exemplary compounds over Comparator C)	58	84.6 fold	3500 nM	3500 nM	76 nM	190 nM	Ki [2, 9]: ≤ 1 nM
CC(C)NC(=O)O[C@@H]1CC[C@H](c2cc(Nc3ccnc(N)n3)n[nH]2)C1 [Example 2G, (1R,3S)-3-(3-((2-aminopyrimidin-4-yl)amino)-1H-pyrazol-5-yl)cyclopentyl isopropylcarbamate]	88 nM	21 fold	1.5 nM	59	100	(+) (The (+) sign in Table Q signifies desirable increased fold-selectivity of the exemplary compounds over Comparator C)	(+) (The (+) sign in Table Q signifies desirable increased fold-selectivity of the exemplary compounds over Comparator C)	1.5 nM	59	100	280 nM	36	1.0	(+) (The (+) sign in Table Q signifies desirable increased fold-selectivity of the exemplary compounds over Comparator C)	36	19.6 fold	10000 nM	10000 nM	280 nM	150 nM	
CNc1nccc(Nc2cc([C@H]3CC[C@@H](OC(=O)NC(C)C)C3)[nH]n2)n1 [Example 2H, (1R,3S)-3-(3-((2-(methylamino)pyrimidin-4-yl)amino)-1H-pyrazol-5-yl)cyclopentyl isopropylcarbamate]	7.5 nM	114 fold	0.28 nM	27	64		(+) (The (+) sign in Table Q signifies desirable increased fold-selectivity of the exemplary compounds over Comparator C)	0.28 nM	27	64	67 nM	16	0.48	(+) (The (+) sign in Table Q signifies desirable increased fold-selectivity of the exemplary compounds over Comparator C)	16	82 fold	1100 nM	1100 nM	32 nM	18 nM	Ki [2, 9]: ≤ 1 nM
CCn1nc(Nc2cc([C@H]3CC[C@@H](OC(=O)NC(C)C)C3)[nH]n2)ccc1=O [Example 2HH, (1R,3S)-3-(3-((1-ethyl-6-oxo-1,6-dihydropyridazin-3-y1)amino)-1H-pyrazol-5-y1)cyclopenty1 isopropylcarbamate]	6.9 nM		0.43 nM	16	490						60 nM	77	0.53				4600 nM		32 nM	210 nM	
